Patent US20110313672A1, “CELLULAR ANTIOXIDANT ACTIVITY (CAA) ASSAY” (CORNELL UNIVERSITY, priority 2007, published 2011)
“And” between values parts separate entries of the source, which are not always exact repeats. Equal values may be shown once. “Also recorded” adds a separate entry of the source. Read-outs that look alike come from different tables or passages of the source.

Legend:
HepG2 cells = test: Cellular antioxidant activity (CAA) assay: inhibition of peroxyl radical-induced DCFH oxidation; assay type: cell-based, human; settings: for CAA value: Example 1, pure compounds, EC50 converted to quercetin equivalents
Description: Cells (e.g., human hepatocellular carcinoma cells; HepG2) are seeded at a density of e.g., 6×10^4/well on a 96-well microplate in 100 μL growth medium/well. It is preferred that only the inside wells of e.g., a 96-well microplate are used for the assay, since the outer wells have increased variation compared to that of the inner wells. Twenty-four hours after seeding the growth medium is removed and the wells are washed with PBS. Triplicate wells are treated for 1 h with 100 μL of a test compound (e.g., pure phytochemical compounds or fruit extracts) plus 25 μM DCFH-DA dissolved in treatment medium.
600 μM ABAP is then applied to the cells in 100 μL HBSS and the 96-well microplate is placed into a plate reader e.g., Fluoroskan Ascent FL plate-reader (ThermoLabsystems, Franklin, Mass.) at 37° C. Emission at 538 nm is measured with excitation at 485 nm, for example every 5 min for 1 h. Each plate should include triplicate control and blank wells: control wells contain cells treated with DCFH-DA and oxidant; blank wells contain cells treated with dye and HBSS without oxidant.
A test compound is assayed in multiple wells of e.g., a 96-well cell culture plate. Some wells are washed with 100 μL of phosphate-buffered saline (PBS) prior to the addition of ABAP, while other wells were not washed prior to the addition of ABAP. It was noted that the measured antioxidant activity of some fruit extracts (e.g., blueberries) was different when a PBS wash was used compared to when there was no PBS wash (see Table 2; FIGS. 3 and 4). This is likely due to non-specific binding of certain antioxidant compounds to the outer membrane, or a reduced uptake of the compound, thus the ratio of antioxidant activity values obtained with a PBS wash compared to a non-PBS wash indicates the bioavailability of the test compound. In order to accurately measure the intracellular antioxidant activity of a test compound, a PBS wash prior to the addition of a peroxyl initiator (e.g, ABAP) is necessary. The values obtained for cells assayed using a PBS wash should be compared to values obtained for the same cells assayed without a PBS wash. One of skill in the art can plan and perform experiments on a test compound in the presence and absence of a PBS wash, in order to accurately assess the intracellular antioxidant capacity of the test compound.
After blank subtraction from the fluorescence readings, the area under the curve of fluorescence versus time is integrated to calculate the cellular antioxidant activity (CAA) value at each concentration of pure phytochemical compound or fruit extract as follows:
where ∫SA is the integrated area under the sample fluorescence versus time curve and ∫CA is the integrated area from the control curve. The median effective dose (EC50) was determined for the pure phytochemical compounds and fruit extracts from the median effect plot of log (fa/fu) vs. log (dose), where fa is the fraction affected and fu is the fraction unaffected by the treatment. To quantify intra-experimental variation, the EC50 values are stated as mean±SD for triplicate sets of data obtained from the same experiment. Inter-experimental variation is obtained for some representative pure phytochemical compounds and fruit extracts by averaging the fluorescence values from triplicate wells in each trial to obtain one EC50 value per experiment and calculating the mean±SD for at least four trials. In each experiment, a standard is used, for example quecetin, thus permitting the cellular antioxidant activities for a test compounds to be expressed as μmol quercetin equivalents (QE)/100 μmol compound. Fruit extracts are expressed as μmol QE/100 g fruit. In order to compare the antioxidant quality of different fruits, cellular antioxidant activity (CAA) is also calculated as μmol QE/100 μmol total phenolics.
Human hepatocellular carcinoma HepG2 cells were seeded at a density of 6×10^4/well on a 96-well microplate in 100 μL growth medium/well. […]

[1] = Oxygen radical absorbance capacity (ORAC) assay; settings: Example 3, flavonoids, mean ± SD, n ≧ 3
Description: The peroxyl radical scavenging efficacy of selected fruits was measured using the ORAC assay (Prior, R. L., et al (2003) J. Agric. Food Chem. 51:3273-3279). Briefly, 20 μL of blank, Trolox standard, or fruit extracts in 75 mM potassium phosphate buffer, pH 7.4 (working buffer), was added to triplicate wells in a black, clear-bottom, 96-well microplate. The triplicate samples were distributed throughout the microplate and were not placed side-by-side, to avoid any effects on readings due to location. In addition, no outside wells were used, as use of those wells results in greater variation. A volume of 200 μL of 0.96 μM fluorescein in working buffer was added to each well and incubated at 37° C. for 20 min, with intermittent shaking, before the addition of 20 μL of freshly prepared 119 mM ABAP in working buffer using a 12-channel pipetter. The microplate was immediately inserted into a Fluoroskan Ascent FL plate reader (ThermoLabsystems) at 37° C. The decay of fluorescence at 538 nm was measured with excitation at 485 nm every 4.5 min for 2.5 h. The areas under the fluorescence versus time curve for the samples minus the area under the curve for the blank were calculated and compared to a standard curve of the areas under the curve for 6.25, 12.5, 25, and 50 μM Trolox standards minus the area under the curve for blank. ORAC values were expressed as mean micromoles of Trolox equivalents (TE) per 100 g of fruit±SD for triplicate data from one experiment.
ORAC measurements were performed as described herein in Example 2.

[2] = Example 3, Table 7, no PBS wash
[3] = Homo sapiens, HepG2, Example 1, Table 1, PBS wash, pure phytochemical compounds, mean ± SD, n=3, read-out: EC50 for inhibition of peroxyl radical-induced DCFH oxidation
[4] = Homo sapiens, HepG2, Example 1, Table 1, no PBS wash, pure phytochemical compounds, mean ± SD, n=3, read-out: EC50 for inhibition of peroxyl radical-induced DCFH oxidation
[5] = Homo sapiens, HepG2, Example 3, Table 7, PBS wash, flavonoids, mean ± SD, n=3, read-out: EC50
[6] = Homo sapiens, HepG2, Example 3, Table 7, no PBS wash, flavonoids, mean ± SD, n=3, read-out: EC50
[7] = CAA assay, either protocol or protocol not specified
[8] = Example 3, Table 7, PBS wash, flavonoids, mean ± SD, n=3
[9] = Example 3, Table 7, no PBS wash, flavonoids, mean ± SD, n=3
[10] = Example 1, Table 1, PBS wash, pure phytochemical compounds, mean ± SD, n=3, read-out: EC50 for inhibition of peroxyl radical-induced DCFH oxidation
[11] = Example 3, Table 7, PBS wash, flavonoids, mean ± SD, n=3, read-out: EC50
[12] = Example 3, Table 7, no PBS wash, flavonoids, mean ± SD, n=3, read-out: EC50

Compound | CAA (HepG2 cells; Example 3, Table 7, PBS wash) | CAA (HepG2 cells; [2]) | EC50 (HepG2 cells; [4]) [µM] | EC50 (HepG2 cells; [5]) [µM] | EC50 (HepG2 cells; [6]) [µM] | ORAC [1] | cellular antioxidant activity, result in words (HepG2 cells; [7]) | other results
O=c1c(O)c(-c2ccc(O)cc2)oc2cc(O)cc(O)c12 [Kaempferol, kaempferol] | 85.1 ± 2.4 μmol of QE/100 μmol | 74.6 ± 4.8 μmol of QE/100 μmol | 7.85 ± 0.51 | 9.57 ± 0.27 | 11.9 ± 0.8 | 7.19 ± 1.29 def μmol of TE/μmol | – | CAA value (HepG2 cells; PBS wash): 81.1 ± 2.7 µmol QE/100 µmol; CAA value (HepG2 cells; no PBS wash): 75.3±4.7 μmol QE/100 μmol; EC50 (HepG2 cells; [3]): 6.31 ± 0.21 µM
O=C1C[C@@H](c2ccc(O)cc2)Oc2cc(O)cc(O)c21 [naringenin] | – | – | – | – | – | 9.23 ± 2.79 bcd μmol of TE/μmol | no activity; also recorded: no CAA | EC50 (HepG2 cells; [8]): no activity; EC50 (HepG2 cells; [9]): no activity; cellular antioxidant activity, result in words (HepG2 cells; no PBS wash protocol): none
O=c1c(O)c(-c2ccc(O)cc2O)oc2cc(O)cc(O)c12 [morin] | 18.6 ± 18 μmol of QE/100 μmol | 32.1 ± 2.1 μmol of QE/100 μmol | – | 43.9 ± 4.3 | 27.6 ± 1.8 | 6.12±1.95 μmol of TE/μmol and 6.12 ± 1.95 efg μmol of TE/μmol | – | EC50 (HepG2 cells; Homo sapiens, HepG2, Example 3, text b252, PBS wash, read-out: EC50): 43.9 ± 0.43 µM; EC50 (HepG2 cells; Homo sapiens, HepG2, Example 3, text b252, no PBS wash, read-out: EC50): 27.6 ± 1.8 µM
O=c1c(-c2ccc(O)cc2)coc2cc(O)cc(O)c12 [genistein] | – | – | – | – | – | 13.4±2.8 μmol of TE/μmol and 13.4 ± 2.8 a μmol of TE/μmol | no cellular antioxidant activity; also recorded: no CAA | cellular antioxidant activity, result in words (HepG2 cells; CAA assay, either protocol or protocol not specified, listed as Genistein): no activity; EC50 (HepG2 cells; [8]): no activity; EC50 (HepG2 cells; [9]): no activity
O=C1c2c(O)cc(O)cc2O[C@H](c2ccc(O)c(O)c2)[C@H]1O [Taxifolin, taxifolin] | – | – | > 150 | > 200 | > 200 | 9.74 ± 1.20 bcd μmol of TE/μmol | low or no cellular antioxidant activity; also recorded: low CAA | EC50 (HepG2 cells; [3]): > 150 µM; cellular antioxidant activity, result in words (HepG2 cells; PBS wash protocol): low activity at the concentrations tested; cellular antioxidant activity, result in words (HepG2 cells; no PBS wash protocol): activity only at doses much higher than their cytotoxic concentrations; also recorded: low, but unquantifiable, activity; also recorded: low but unquantifiable activity
(−)-epigallocatechin gallate [EGCG] | 63.8 ± 4.4 μmol of QE/100 μmol | 72.1 ± 3.8 μmol of QE/100 μmol | – | – | – | 4.55±0.40 μmol of TE/μmol and 4.55 ± 0.40 fgh μmol of TE/μmol | – | EC50 (HepG2 cells; [10]): 15.8 ± 0.4 µM; EC50 (HepG2 cells; Example 1, Table 1, no PBS wash, pure phytochemical compounds, mean ± SD, n=3, read-out: EC50 for inhibition of peroxyl radical-induced DCFH oxidation): 14 ± 1 µM; CAA value (HepG2 cells; PBS wash): 32.3 ± 0.9 µmol QE/100 µmol; CAA value (HepG2 cells; no PBS wash): 42.2±3.1 μmol QE/100 μmol; EC50 (HepG2 cells; [11]): 12.8 ± 0.9 µM; EC50 (HepG2 cells; [12]): 12.3 ± 0.7 µM
Oc1cc(O)c2c(c1)O[C@H](c1cc(O)c(O)c(O)c1)[C@H](O)C2 [EGC, (−)-epigallocatechin] | – | 12.1 ± 2.2 μmol of QE/100 μmol | – | > 100 | 74.2 ± 12.9 | 3.11±0.73 μmol of TE/μmol and 3.11 ± 0.73 cde μmol of TE/μmol | – | cellular antioxidant activity, result in words (HepG2 cells; PBS wash protocol): low activity at the concentrations tested
O=C(O[C@@H]1Cc2c(O)cc(O)cc2O[C@@H]1c1ccc(O)c(O)c1)c1cc(O)c(O)c(O)c1 [ECG, (−)-epicatechin gallate] | 31.9 ± 2.2 μmol of QE/100 μmol | 62.1 ± 1.9 μmol of QE/100 μmol | – | 25.6 ± 1.8 | 14.2 ± 0.4 | 7.71 ± 1.57 cde μmol of TE/μmol | – | –
O=c1c(O)c(-c2ccccc2)oc2cc(O)cc(O)c12 [galangin] | 107.8 ± 6.4 μmol of QE/100 μmol | 66.3 ± 1.1 μmol of QE/100 μmol | – | 7.56 ± 0.46 | 13.3 ± 0.2 | 2.63 ± 1.31 gh μmol of TE/μmol | – | ORAC ([1]; listed as Galangin): 2.63±1.31 μmol of TE/μmol
O=c1c(O)c(-c2ccc(O)c(O)c2)oc2cc(O)cc(O)c12 [Quercetin, quercetin] | 105.7 ± 3.7 μmol of QE/100 μmol | 99.1 ± 4.8 μmol of QE/100 μmol | 5.92 ± 0.07 | 7.71 ± 0.26 | 8.93 ± 0.44 | 8.04 ± 2.37 cde μmol of TE/μmol | – | EC50 (HepG2 cells; [10]): 5.09 ± 0.19 µM; EC50 (HepG2 cells; Homo sapiens, HepG2, Table 2, no PBS wash, mean ± SD over the trials, read-out: Interexperimental EC50): 5.89 ± 0.36 µM; EC50 (HepG2 cells; Homo sapiens, HepG2, Table 2, no PBS wash, one line per trial (trials 1-5), n=3, read-out: Intraexperimental EC50): 6.07 ± 0.25 µM; EC50 (HepG2 cells; Homo sapiens, HepG2, Table 3, PBS wash, mean ± SD over the trials, read-out: Interexperimental EC50): 5.12 ± 0.58 µM; EC50 (HepG2 cells; Homo sapiens, HepG2, Table 3, PBS wash, one line per trial (trials 1-5), n=3, read-out: Intraexperimental EC50): 4.48 ± 0.18 µM
O=c1c(O[C@@H]2O[C@H](CO)[C@@H](O)[C@H](O)[C@H]2O)c(-c2ccc(O)c(O)c2)oc2cc(O)cc(O)c12 [Q-3-G, quercetin-3-β-D-glucoside] | 6.6 ± 0.1 μmol of QE/100 μmol | 7.7 ± 0.1 μmol of QE/100 μmol | – | – | – | 8.11 ± 1.86 cde μmol of TE/μmol | low amount of activity; also recorded: low or no cellular antioxidant activity | EC50 (HepG2 cells; [11]): 122 ± 1 µM; EC50 (HepG2 cells; [12]): 115 ± 2 µM
O=c1c(O)c(-c2cc(O)c(O)c(O)c2)oc2cc(O)cc(O)c12 [Myricetin, myricetin] | 11.5 ± 0.7 μmol of QE/100 μmol | 28.4 ± 0.9 μmol of QE/100 μmol | 16.1 ± 1.7 | 70.7 ± 4.2 | 31.1 ± 1 | 4.55±0.50 μmol of TE/μmol and 4.55 ± 0.50 fgh μmol of TE/μmol | – | CAA value (HepG2 cells; PBS wash): 33.1 ± 1 µmol QE/100 µmol; CAA value (HepG2 cells; no PBS wash): 36.8±3.8 μmol QE/100 μmol; EC50 (HepG2 cells; [3]): 15.4 ± 0.5 µM; EC50 (HepG2 cells; Homo sapiens, HepG2, Example 3, text, no PBS wash, read-out: EC50): 31.1 ± 1 µM
